In patent US20140155376A1, “PYRROLOPYRAZINE KINASE INHIBITORS” (Hoffmann-La Roche Inc., priority 2010, published 2014):

target: T1, JAK3 (recombinant human kinase domain; h-jak3(810-1124)) (Homo sapiens, UniProt P52333); assay: Determination of IC50 of Janus Kinase (JAK) inhibition: JAK3, radioactive end-point assay with 33P-ATP; type: biochemical; conditions: JAK3 kinase domain; ATP 1.5 uM, peptide 50 uM, 20 minutes, room temperature, 10% DMSO; read-out: Ic50 h-jak3(810-1124)-sf9-c:no additive
T1 construct: h-jak3(810- 1124)-sf9-c; made in house; host or cells: Sf9 insect cells
T1 sequence (P52333 810-1124): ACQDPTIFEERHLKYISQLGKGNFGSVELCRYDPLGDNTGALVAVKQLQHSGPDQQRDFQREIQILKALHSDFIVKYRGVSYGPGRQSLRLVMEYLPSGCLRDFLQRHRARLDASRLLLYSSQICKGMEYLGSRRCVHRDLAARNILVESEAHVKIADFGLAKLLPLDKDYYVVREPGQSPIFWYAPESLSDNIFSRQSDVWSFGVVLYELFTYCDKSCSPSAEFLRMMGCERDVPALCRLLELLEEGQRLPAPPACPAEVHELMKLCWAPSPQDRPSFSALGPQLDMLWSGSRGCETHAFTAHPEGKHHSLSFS

Row | SMILES | IC50
1 | C=Cc1cnc2[nH]cc(C(=O)NCC(C)(C)CO)c2n1 [Example I-36, 2-Vinyl-5H-pyrrolo[2,3-b]pyrazine-7-carboxylic acid (3-hydroxy-2,2-dimethyl-propyl)-amide] | 33.6 nM
2 | CC(C)NC(=O)c1c[nH]c2ncc(Oc3ccc4c(c3)[C@H](NC(N)=O)CC4)nc12 [Example I-299, 2-((R)-3-Ureido-indan-5-yloxy)-5H-pyrrolo[2,3-b]pyrazine-7-carboxylic acid isopropylamide] | 143 nM
3 | CC(C)(O)[C@@H](NC(=O)c1c[nH]c2ncc(C3CC3)nc12)C1CC1 [Example I-73, 2-Cyclopropyl-5H-pyrrolo[2,3-b]pyrazine-7-carboxylic acid ((S)-1-cyclopropyl-2-hydroxy-2-methyl-propyl)-amide] | 92.4 nM
4 | CCNC(=O)c1c[nH]c2ncc(Oc3ccccc3C)nc12 [Example I-257, 2-o-Tolyloxy-5H-pyrrolo[2,3-b]pyrazine-7-carboxylic acid ethylamide] | 2740 nM
5 | CCNC(=O)c1c[nH]c2ncc(Oc3cccc4c3CCCC4)nc12 [Example I-259] | 6710 nM
6 | CC(C)(C)[C@H](CO)NC(=O)c1c[nH]c2ncc(C3CC3)nc12 [Example I-52, 2-Cyclopropyl-5H-pyrrolo[2,3-b]pyrazine-7-carboxylic acid ((R)-1-hydroxymethyl-2,2-dimethyl-propyl)-amide] | 11.1 nM
7 | C[C@H](NC(=O)c1c[nH]c2ncc(C3CC3)nc12)[C@](C)(O)C(F)(F)F [Example I-63, 2-Cyclopropyl-5H-pyrrolo[2,3-b]pyrazine-7-carboxylic acid ((1S,2S)-3,3,3-trifluoro-2-hydroxy-1,2-dimethyl-propyl)-amide] | 30.5 nM

Further lines, results first:

Row | IC50 | SMILES
8 | 0.41 nM | C[C@H](NC(=O)c1c[nH]c2ncc(-c3ccc(C(=O)NCc4c(F)cccc4F)s3)nc12)C(C)(C)C [Example I-188, 2-[5-(2,6-Difluoro-benzylcarbamoyl)-thiophen-2-yl]-5H-pyrrolo[2,3-b]pyrazine-7-carboxylic acid ((S)-1,2,2-trimethyl-propyl)-amide]
9 | 0.22 nM | C[C@H](CS(C)(=O)=O)NC(=O)c1ccc(-c2cnc3[nH]cc(C(=O)N[C@@H](C)C(C)(C)C)c3n2)s1 [Example I-211, 2-[5-((R)-2-Methanesulfonyl-1-methyl-ethylcarbamoyl)-thiophen-2-yl]-5H-pyrrolo[2,3-b]pyrazine-7-carboxylic acid ((S)-1,2,2-trimethyl-propyl)-amide]
10 | 0.32 nM | CONC(=O)c1ccc(-c2cnc3[nH]cc(C(=O)N[C@@H](C)C(C)(C)C)c3n2)s1 [Example I-197, 2-(5-Methoxy-carbamoyl-thiophen-2-yl)-5H-pyrrolo[2,3-b]pyrazine-7-carboxylic acid ((S)-1,2,2-trimethyl-propyl)-amide]
11 | 24.4 nM | C[C@H](NC(=O)c1c[nH]c2ncc(Oc3ccccc3)nc12)C(C)(C)C [Example I-120, 2-Phenoxy-5H-pyrrolo[2,3-b]pyrazine-7-carboxylic acid ((S)-1,2,2-trimethyl-propyl)-amide]
12 | 86.2 nM | C[C@@H](NC(=O)c1c[nH]c2ncc(-c3ccccn3)nc12)C(C)(C)O [Example I-112, 2-Pyridin-2-yl-5H-pyrrolo[2,3-b]pyrazine-7-carboxylic acid ((R)-2-hydroxy-1,2-dimethyl-propyl)-amide]
13 | 59.5 nM | CC[C@H](C)NC(=O)c1c[nH]c2ncc(Oc3ccccc3)nc12 [Example I-121, 2-Phenoxy-5H-pyrrolo[2,3-b]pyrazine-7-carboxylic acid ((S)-sec-butyl)-amide]
14 | 50 nM | C[C@@H](NC(=O)c1c[nH]c2ncc(C3CC3)nc12)c1ccccc1 [Example I-66, 2-Cyclopropyl-5H-pyrrolo[2,3-b]pyrazine-7-carboxylic acid ((R)-1-phenyl-ethyl)-amide]
15 | 0.11 nM | C[C@H](NC(=O)c1c[nH]c2ncc(-c3ccc(C(=O)NCc4ccccn4)s3)nc12)C(C)(C)C [Example I-166, 2-{5-[(Pyridin-2-ylmethyl)-carbamoyl]-thiophen-2-yl}-5H-pyrrolo[2,3-b]pyrazine-7-carboxylic acid ((S)-1,2,2-trimethyl-propyl)-amide]
